According to patent publication US8129380B2, “Phthalazinone derivatives” (AstraZeneca AB, priority 2008, dated 2012):

Test system: HeLa cells
Assay: Potentiation Factor (PF50): MMS growth inhibition, SRB assay
Type: cell-based
Details: MMS 0-10 μg/ml, ratio IC50 control / IC50 + inhibitor; for PF50 (30 nM): PARP inhibitor at 30 nM; for PF50 (200 nM): PARP inhibitor at 200 nM
Method: The Potentiation Factor (PF50) for compounds is calculated as a ratio of the IC50 of control cell growth divided by the IC50 of cell growth+PARP inhibitor. Growth inhibition curves for both control and compound treated cells are in the presence of the alkylating agent methyl methanesulfonate (MMS). The test compounds were used at a fixed concentration of 0.2 micromolar. The concentrations of MMS were over a range from 0 to 10 μg/ml.
2,000 HeLa cells were seeded into each well of a flat-bottomed 96-well microtiter plate in a volume of 100 μl and incubated for 6 hours at 37° C. Cells were either replaced with media alone or with media containing PARP inhibitor at a final concentration of 30 nM or 200 nM. […] Cells treated with PARP inhibitor alone were used to assess the growth inhibition by the PARP inhibitor.
Cells were left for a further 16 hours before replacing the media and allowing the cells to grow for a further 72 hours at 37° C. The media was then removed and the cells fixed with 100 μl of ice cold 10% (w/v) trichloroacetic acid. The plates were incubated at 4° C. for 20 minutes and then washed four times with water. Each well of cells was then stained with 100 μl of 0.4% (w/v) SRB in 1% acetic acid for 20 minutes before washing four times with 1% acetic acid. Plates were then dried for 2 hours at room temperature. The dye from the stained cells was solubilized by the addition of 100 μl of 10 mM Tris Base into each well.

Row | Structure (SMILES) | PF50 (30 nM) | PF50 (200 nM)
1 | O=C(c1cccc(Cc2n[nH]c(=O)c3ccccc23)c1)N1CCC(OC2CCCC2)CC1 [Compound 37, 4-(3-(4-(cyclopentyloxy)piperidine-1-carbonyl)benzyl)phthalazin-1(2H)-one] | 1.7 | 10.6
2 | Cc1cccc(OC2CCN(C(=O)c3cc(Cc4n[nH]c(=O)c5ccccc45)ccc3F)CC2)n1 [Compound 39, 4-(4-fluoro-3-(4-(6-methylpyridin-2-yloxy)piperidine-1-carbonyl)benzyl)phthalazin-1(2H)-one] | 1.4 | 
3 | O=C(c1cc(Cc2n[nH]c(=O)c3ccccc23)ccn1)N1CCC(OC2CCCC2)CC1 [Compound 40, 4-((2-(4-(cyclopentyloxy)piperidine-1-carbonyl)pyridin-4-yl)methyl)phthalazin-1(2H)-one] | 2.2 | 19.8
4 | COC1CCN(C(=O)c2cc(Cc3n[nH]c(=O)c4cccc(N)c34)ccc2F)CC1 [Compound 46, 5-amino-4-(4-fluoro-3-(4-methoxypiperidine-1-carbonyl)benzyl)phthalazin-1(2H)-one] | 20.1 | 3.24
5 | CCOC1CCN(C(=O)c2cccc(Cc3n[nH]c(=O)c4ccccc34)c2)CC1 [Compound 47a, 4-(3-(4-ethoxypiperidine-1-carbonyl)benzyl)phthalazin-1(2H)-one] | 1.8 | 
6 | CCOC1CCN(C(=O)c2cc(Cc3n[nH]c(=O)c4c(C)[nH]c(C)c34)ccc2F)CC1 [Compound 54, 4-(3-(4-ethoxypiperidine-1-carbonyl)-4-fluorobenzyl)-5,7-dimethyl-2,6-dihydro-1H-pyrrolo[3,4-d]pyridazin-1-one] | 1.3 | 
7 | COC1CCN(C(=O)c2cc(Cc3n[nH]c(=O)c4c(C)[nH]c(C)c34)ccc2F)CC1 [Compound 58, 4-(4-fluoro-3-(4-methoxypiperidine-1-carbonyl)benzyl)-5,7-dimethyl-2,6-dihydro-1H-pyrrolo[3,4-d]pyridazin-1-one] | 1.0 | 
8 | COC1CCN(C(=O)c2cc(Cc3n[nH]c(=O)c4c(C)n(C)c(C)c34)ccc2F)CC1 [Compound 60, 4-(4-fluoro-3-(4-methoxypiperidine-1-carbonyl)benzyl)-5,6,7-trimethyl-2,6-dihydro-1H-pyrrolo[3,4-d]pyridazin-1-one] | 1.0 | 
9 | COC1CCN(C(=O)c2cc(Cc3n[nH]c(=O)c4c[nH]c(C)c34)ccc2F)CC1 [Compound 63, 4-(4-fluoro-3-(4-methoxypiperidine-1-carbonyl)benzyl)-5-methyl-2,6-dihydro-1H-pyrrolo[3,4-d]pyridazin-1-one] | 1.0 | 
10 | COC1CCN(C(=O)c2cc(Cc3n[nH]c(=O)c4cc(Cl)ccc34)ccc2F)CC1 [Compound 69, 7-chloro-4-(4-fluoro-3-(4-methoxypiperidine-1-carbonyl)benzyl)phthalazin-1(2H)-one] | 1.7 | 
11 | CC(C)(C)OC1CCN(C(=O)c2cc(Cc3n[nH]c(=O)c4ccccc34)ccc2F)CC1 [Compound 70, 4-(3-(4-tert-butoxypiperidine-1-carbonyl)-4-fluorobenzyl)phthalazin-1(2H)-one] | 32.1 | 19.5
12 | CC(C)(C)OC1CCN(C(=O)c2cccc(Cc3n[nH]c(=O)c4ccccc34)c2)CC1 [Compound 71, 4-[[3-[4-[(2-methylpropan-2-yl)oxy]piperidine-1-carbonyl]phenyl]methyl]-2H-phthalazin-1-one] | 4.0 | 8.9
13 | CC(C)(C)OC1CCN(C(=O)c2cc(Cc3n[nH]c(=O)c4ccccc34)ccn2)CC1 [Compound 73, 4-((2-(4-tert-butoxypiperidine-1-carbonyl)pyridin-4-yl)methyl)phthalazin-1(2H)-one] | 6.2 | 27.8
14 | CC1(O)CCN(C(=O)c2cc(Cc3n[nH]c(=O)c4ccccc34)ccc2F)CC1 [Compound 74, 4-(4-fluoro-3-(4-hydroxy-4-methylpiperidine-1-carbonyl)benzyl)phthalazin-1(2H)-one] | 1.5 | 
15 | O=C(COC1CCN(C(=O)c2cc(Cc3n[nH]c(=O)c4ccccc34)ccc2F)CC1)N1CCOCC1 [Compound 77, 4-(4-fluoro-3-(4-(2-morpholino-2-oxoethoxy)piperidine-1-carbonyl)benzyl)phthalazin-1(2H)-one] | 3.1 | 
16 | O=C(c1cc(Cc2n[nH]c(=O)c3ccccc23)ccc1F)N1CCC(OCCN2CCOCC2)CC1 [Compound 80, 4-(4-fluoro-3-(4-(2-morpholinoethoxy)piperidine-1-carbonyl)benzyl)phthalazin-1(2H)-one] | 1.5 | 
17 | CN(C)C(=O)COC1CCN(C(=O)c2cc(Cc3n[nH]c(=O)c4ccccc34)ccc2F)CC1 [Compound 83, 2-(1-(2-fluoro-5-((4-oxo-3,4-dihydrophthalazin-1-yl)methyl)benzoyl)piperidin-4-yloxy)-N,N-dimethylacetamide] | 1.7 | 
18 | O=C(COC1CCN(C(=O)c2cc(Cc3n[nH]c(=O)c4ccccc34)ccc2F)CC1)N1CC(F)(F)C1 [Compound 89, 4-(3-(4-(2-(3,3-difluoroazetidin-1-yl)-2-oxoethoxy)piperidine-1-carbonyl)-4-fluorobenzyl)phthalazin-1(2H)-one] | 1.9 | 
19 | O=C(O)COC1CCN(C(=O)c2cc(Cc3n[nH]c(=O)c4ccccc34)ccc2F)CC1 [Compound 90, 2-(1-(2-fluoro-5-((4-oxo-3,4-dihydrophthalazin-1-yl)methyl)benzoyl)piperidin-4-yloxy)acetic acid] | 1.1 | 
20 | COC[C@H](C)OC1CCN(C(=O)c2cc(Cc3n[nH]c(=O)c4ccccc34)ccc2F)CC1 [Compound 93, (S)-4-(4-fluoro-3-(4-(1-methoxypropan-2-yloxy)piperidine-1-carbonyl)benzyl)phthalazin-1(2H)-one] | 2.8 | 
21 | COC1CCN(C(=O)c2cc(Cc3n[nH]c(=O)c4ccc(N)cc34)ccc2F)CC1 [Compound 99, 6-amino-4-(4-fluoro-3-(4-methoxypiperidine-1-carbonyl)benzyl)phthalazin-1(2H)-one] | 1.0 | 
22 | COC1CCN(C(=O)c2cc(Cc3n[nH]c(=O)c4cccc(Cl)c34)ccc2F)CC1 [Compound 104a, 5-chloro-4-(4-fluoro-3-(4-methoxypiperidine-1-carbonyl)benzyl)phthalazin-1(2H)-one] | 1.3 | 
23 | CCOC1CCN(C(=O)c2cc(Cc3n[nH]c(=O)c4cccc(Cl)c34)ccc2F)CC1 [Compound 104b, 5-chloro-4-(3-(4-ethoxypiperidine-1-carbonyl)-4-fluorobenzyl)phthalazin-1(2H)-one] | 2.2 | 
24 | O=C(COC1CCN(C(=O)c2cc(Cc3n[nH]c(=O)c4ccccc34)ccc2F)CC1)N1CCCC1 [Compound 107, 4-(4-fluoro-3-(4-(2-oxo-2-(pyrrolidin-1-yl)ethoxy)piperidine-1-carbonyl)benzyl)phthalazin-1(2H)-one] | 1.7 | 
25 | O=C(COC1CCN(C(=O)c2cc(Cc3n[nH]c(=O)c4ccccc34)ccc2F)CC1)N1CCCCC1 [Compound 113, 4-(4-fluoro-3-(4-(2-oxo-2-(piperidin-1-yl)ethoxy)piperidine-1-carbonyl)benzyl)phthalazin-1 (2H)-one] | 5.8 | 23.1
26 | COC1CCN(C(=O)c2cccc(Cc3n[nH]c(=O)c4cccc(Cl)c34)c2)CC1 [Compound 119a, 5-chloro-4-(3-(4-methoxypiperidine-1-carbonyl)benzyl)phthalazin-1(2H)-one] | 1.0 | 
27 | CCOC1CCN(C(=O)c2cccc(Cc3n[nH]c(=O)c4cccc(Cl)c34)c2)CC1 [Compound 119b, 5-chloro-4-(3-(4-ethoxypiperidine-1-carbonyl)benzyl)phthalazin-1(2H)-one] | 1.2 | 
28 | COc1cccc2c(=O)[nH]nc(Cc3ccc(F)c(C(=O)N4CCC(OC)CC4)c3)c12 [Compound 126a, 4-(4-fluoro-3-(4-methoxypiperidine-1-carbonyl)benzyl)-5-methoxyphthalazin-1(2H)-one] | 11.0 | 
29 | CCOC1CCN(C(=O)c2cc(Cc3n[nH]c(=O)c4cccc(OC)c34)ccc2F)CC1 [Compound 126b, 4-(3-(4-ethoxypiperidine-1-carbonyl)-4-fluorobenzyl)-5-methoxyphthalazin-1(2H)-one] | 7.4 | 
30 | CCOC1CCN(C(=O)c2cc(F)cc(Cc3n[nH]c(=O)c4cccc(Cl)c34)c2)CC1 [Compound 129a, 5-chloro-4-(3-(4-ethoxypiperidine-1-carbonyl)-5-fluorobenzyl)phthalazin-1(2H)-one] | 1.0 | 
